Calls of active or inactive are those of the source. The calls are words filed in the database; no cut-off is given here.

This note sets out measurements from ChEMBL document CHEMBL1145828, “Development of natural product-derived receptor tyrosine kinase inhibitors based on conservation of protein domain fold” (J Med Chem, 2003).

Experiment [1] deals with T1, Angiopoietin-1 receptor (Homo sapiens, UniProt Q02763). Description: Inhibition of Tyrosine protein kinase receptor TIE-2.
Experiment [2] concerns the target T2, Insulin-like growth factor 1 receptor (Homo sapiens, UniProt P08069). Description: Inhibition of Insulin-like growth factor I receptor (No effect).
The target in experiment [3] is T3, Vascular endothelial growth factor receptor 3 (Homo sapiens, UniProt P35916). Description: Inhibition of Vascular endothelial growth factor receptor 3 (No effect).
Experiment [4] concerns the target T4, Receptor tyrosine-protein kinase erbB-2 (Homo sapiens, UniProt P04626). Kind of experiment: Inhibition of ERBB2 receptor kinase.
The target of experiment [5] is T5, Vascular endothelial growth factor receptor 2 (Homo sapiens, UniProt P35968). Kind of experiment: Inhibition of Vascular endothelial growth factor receptor 2 (No effect).
T5 sequence (P35968 whole entry): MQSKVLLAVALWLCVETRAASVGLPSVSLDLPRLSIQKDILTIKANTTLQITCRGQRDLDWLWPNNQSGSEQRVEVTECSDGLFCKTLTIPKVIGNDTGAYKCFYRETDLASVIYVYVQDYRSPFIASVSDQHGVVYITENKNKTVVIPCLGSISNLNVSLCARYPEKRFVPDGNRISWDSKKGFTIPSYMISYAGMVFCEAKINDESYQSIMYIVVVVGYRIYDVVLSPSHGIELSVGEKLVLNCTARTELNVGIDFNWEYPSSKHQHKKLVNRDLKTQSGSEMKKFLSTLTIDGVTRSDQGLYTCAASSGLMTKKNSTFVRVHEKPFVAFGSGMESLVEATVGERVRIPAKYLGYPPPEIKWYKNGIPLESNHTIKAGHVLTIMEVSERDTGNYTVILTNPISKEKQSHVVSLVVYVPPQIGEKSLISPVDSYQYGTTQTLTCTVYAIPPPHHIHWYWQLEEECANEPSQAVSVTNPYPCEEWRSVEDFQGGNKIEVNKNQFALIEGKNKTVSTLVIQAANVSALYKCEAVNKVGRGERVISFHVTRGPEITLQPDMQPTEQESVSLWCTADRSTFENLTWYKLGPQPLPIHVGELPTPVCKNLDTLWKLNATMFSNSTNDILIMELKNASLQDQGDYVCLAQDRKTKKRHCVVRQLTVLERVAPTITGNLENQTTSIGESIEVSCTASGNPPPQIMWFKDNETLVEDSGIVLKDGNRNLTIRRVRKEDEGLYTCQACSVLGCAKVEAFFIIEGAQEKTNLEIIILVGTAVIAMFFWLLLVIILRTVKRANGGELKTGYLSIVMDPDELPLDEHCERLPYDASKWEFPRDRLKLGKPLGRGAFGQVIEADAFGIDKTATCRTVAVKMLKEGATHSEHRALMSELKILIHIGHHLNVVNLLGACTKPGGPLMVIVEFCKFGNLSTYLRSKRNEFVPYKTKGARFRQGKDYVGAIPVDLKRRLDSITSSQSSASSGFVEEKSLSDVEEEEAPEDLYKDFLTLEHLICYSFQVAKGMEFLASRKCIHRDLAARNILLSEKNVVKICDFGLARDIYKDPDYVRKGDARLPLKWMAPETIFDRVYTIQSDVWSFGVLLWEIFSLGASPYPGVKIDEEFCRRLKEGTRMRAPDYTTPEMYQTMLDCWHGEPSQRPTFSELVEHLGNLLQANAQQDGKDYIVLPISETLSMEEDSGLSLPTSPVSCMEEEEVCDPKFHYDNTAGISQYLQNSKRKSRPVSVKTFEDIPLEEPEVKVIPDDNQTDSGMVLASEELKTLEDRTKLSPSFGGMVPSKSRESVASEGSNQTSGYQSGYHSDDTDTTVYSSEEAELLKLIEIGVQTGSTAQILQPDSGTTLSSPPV
In experiment [6] the target is T6, Epidermal growth factor receptor (Homo sapiens, UniProt P00533). Kind of experiment: Inhibition of Epidermal growth factor receptor.
T6 sequence (P00533 whole entry): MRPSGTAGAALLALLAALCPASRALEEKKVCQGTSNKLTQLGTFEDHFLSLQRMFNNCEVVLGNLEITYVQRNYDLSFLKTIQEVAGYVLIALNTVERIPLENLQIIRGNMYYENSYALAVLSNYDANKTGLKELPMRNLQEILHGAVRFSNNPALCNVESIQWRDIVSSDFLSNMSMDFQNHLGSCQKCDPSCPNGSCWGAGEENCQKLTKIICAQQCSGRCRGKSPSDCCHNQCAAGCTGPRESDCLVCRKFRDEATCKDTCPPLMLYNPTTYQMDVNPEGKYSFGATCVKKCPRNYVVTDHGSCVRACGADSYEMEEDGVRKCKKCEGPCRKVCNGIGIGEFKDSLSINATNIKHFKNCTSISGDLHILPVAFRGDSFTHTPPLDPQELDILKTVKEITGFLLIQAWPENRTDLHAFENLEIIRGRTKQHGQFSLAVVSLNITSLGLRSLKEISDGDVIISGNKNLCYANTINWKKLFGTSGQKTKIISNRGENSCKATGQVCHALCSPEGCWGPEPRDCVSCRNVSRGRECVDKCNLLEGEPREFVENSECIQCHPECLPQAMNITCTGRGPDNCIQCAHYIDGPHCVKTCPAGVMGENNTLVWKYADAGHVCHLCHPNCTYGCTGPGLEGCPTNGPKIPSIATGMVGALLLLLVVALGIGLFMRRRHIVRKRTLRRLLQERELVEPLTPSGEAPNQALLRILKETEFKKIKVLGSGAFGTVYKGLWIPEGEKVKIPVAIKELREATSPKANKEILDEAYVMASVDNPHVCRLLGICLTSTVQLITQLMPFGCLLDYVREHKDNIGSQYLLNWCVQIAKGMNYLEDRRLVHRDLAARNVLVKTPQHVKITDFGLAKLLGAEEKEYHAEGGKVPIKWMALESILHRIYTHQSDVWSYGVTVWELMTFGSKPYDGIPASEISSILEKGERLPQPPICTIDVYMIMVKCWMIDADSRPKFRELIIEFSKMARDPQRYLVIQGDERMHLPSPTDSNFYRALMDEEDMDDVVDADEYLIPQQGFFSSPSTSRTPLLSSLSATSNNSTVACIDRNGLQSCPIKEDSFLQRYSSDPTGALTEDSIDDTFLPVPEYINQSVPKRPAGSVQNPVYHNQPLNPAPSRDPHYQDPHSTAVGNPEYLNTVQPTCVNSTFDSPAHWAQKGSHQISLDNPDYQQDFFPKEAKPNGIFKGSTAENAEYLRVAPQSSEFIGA
Experiment [7] deals with T1, Angiopoietin-1 receptor. Description: Inhibition of Tyrosine protein kinase receptor TIE-2 (No effect).
Experiment [8] deals with T6, Epidermal growth factor receptor. Description: Inhibition of Epidermal growth factor receptor (No effect).
The target of experiment [9] is T2, Insulin-like growth factor 1 receptor. Kind of experiment: Inhibition of Insulin-like growth factor I receptor.
The target of experiment [10] is T5, Vascular endothelial growth factor receptor 2. Description: Inhibition of Vascular endothelial growth factor receptor 2.
Experiment [11] addresses T4, Receptor tyrosine-protein kinase erbB-2. Kind of experiment: Inhibition of ERBB2 receptor kinase (No effect).
The target in experiment [12] is T3, Vascular endothelial growth factor receptor 3. Description: Inhibition of Vascular endothelial growth factor receptor 3.

T4 sequence (P04626 whole entry): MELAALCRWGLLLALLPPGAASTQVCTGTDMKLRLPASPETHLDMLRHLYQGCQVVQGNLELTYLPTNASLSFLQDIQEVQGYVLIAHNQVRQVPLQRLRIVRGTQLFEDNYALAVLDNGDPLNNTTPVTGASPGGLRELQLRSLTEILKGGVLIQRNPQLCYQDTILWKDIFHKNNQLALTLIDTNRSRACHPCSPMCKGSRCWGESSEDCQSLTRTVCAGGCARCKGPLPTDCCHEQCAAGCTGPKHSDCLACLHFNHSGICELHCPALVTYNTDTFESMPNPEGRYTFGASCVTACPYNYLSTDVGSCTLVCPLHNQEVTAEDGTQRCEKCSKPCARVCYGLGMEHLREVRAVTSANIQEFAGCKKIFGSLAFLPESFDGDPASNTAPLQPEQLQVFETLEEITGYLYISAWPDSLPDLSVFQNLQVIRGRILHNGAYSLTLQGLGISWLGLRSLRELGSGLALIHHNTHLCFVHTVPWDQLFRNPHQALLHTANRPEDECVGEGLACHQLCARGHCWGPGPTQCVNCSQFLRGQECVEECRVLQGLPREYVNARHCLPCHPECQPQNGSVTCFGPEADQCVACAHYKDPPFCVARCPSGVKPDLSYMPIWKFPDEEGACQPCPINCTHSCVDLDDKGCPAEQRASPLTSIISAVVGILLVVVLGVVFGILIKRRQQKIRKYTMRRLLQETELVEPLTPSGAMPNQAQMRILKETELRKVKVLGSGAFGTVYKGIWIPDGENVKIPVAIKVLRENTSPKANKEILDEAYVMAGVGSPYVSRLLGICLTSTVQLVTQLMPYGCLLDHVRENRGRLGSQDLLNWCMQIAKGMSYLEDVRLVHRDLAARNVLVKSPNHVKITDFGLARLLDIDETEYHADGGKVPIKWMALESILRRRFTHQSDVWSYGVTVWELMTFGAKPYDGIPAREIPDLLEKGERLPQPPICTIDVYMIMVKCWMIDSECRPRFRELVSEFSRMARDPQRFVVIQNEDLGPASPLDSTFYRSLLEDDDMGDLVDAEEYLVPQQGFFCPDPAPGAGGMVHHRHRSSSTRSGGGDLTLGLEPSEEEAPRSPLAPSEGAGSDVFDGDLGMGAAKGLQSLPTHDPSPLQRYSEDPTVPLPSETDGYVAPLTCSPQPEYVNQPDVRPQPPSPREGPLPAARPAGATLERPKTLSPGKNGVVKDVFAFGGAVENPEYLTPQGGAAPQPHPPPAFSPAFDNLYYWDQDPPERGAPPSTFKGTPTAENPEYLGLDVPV
T1 sequence (Q02763 whole entry): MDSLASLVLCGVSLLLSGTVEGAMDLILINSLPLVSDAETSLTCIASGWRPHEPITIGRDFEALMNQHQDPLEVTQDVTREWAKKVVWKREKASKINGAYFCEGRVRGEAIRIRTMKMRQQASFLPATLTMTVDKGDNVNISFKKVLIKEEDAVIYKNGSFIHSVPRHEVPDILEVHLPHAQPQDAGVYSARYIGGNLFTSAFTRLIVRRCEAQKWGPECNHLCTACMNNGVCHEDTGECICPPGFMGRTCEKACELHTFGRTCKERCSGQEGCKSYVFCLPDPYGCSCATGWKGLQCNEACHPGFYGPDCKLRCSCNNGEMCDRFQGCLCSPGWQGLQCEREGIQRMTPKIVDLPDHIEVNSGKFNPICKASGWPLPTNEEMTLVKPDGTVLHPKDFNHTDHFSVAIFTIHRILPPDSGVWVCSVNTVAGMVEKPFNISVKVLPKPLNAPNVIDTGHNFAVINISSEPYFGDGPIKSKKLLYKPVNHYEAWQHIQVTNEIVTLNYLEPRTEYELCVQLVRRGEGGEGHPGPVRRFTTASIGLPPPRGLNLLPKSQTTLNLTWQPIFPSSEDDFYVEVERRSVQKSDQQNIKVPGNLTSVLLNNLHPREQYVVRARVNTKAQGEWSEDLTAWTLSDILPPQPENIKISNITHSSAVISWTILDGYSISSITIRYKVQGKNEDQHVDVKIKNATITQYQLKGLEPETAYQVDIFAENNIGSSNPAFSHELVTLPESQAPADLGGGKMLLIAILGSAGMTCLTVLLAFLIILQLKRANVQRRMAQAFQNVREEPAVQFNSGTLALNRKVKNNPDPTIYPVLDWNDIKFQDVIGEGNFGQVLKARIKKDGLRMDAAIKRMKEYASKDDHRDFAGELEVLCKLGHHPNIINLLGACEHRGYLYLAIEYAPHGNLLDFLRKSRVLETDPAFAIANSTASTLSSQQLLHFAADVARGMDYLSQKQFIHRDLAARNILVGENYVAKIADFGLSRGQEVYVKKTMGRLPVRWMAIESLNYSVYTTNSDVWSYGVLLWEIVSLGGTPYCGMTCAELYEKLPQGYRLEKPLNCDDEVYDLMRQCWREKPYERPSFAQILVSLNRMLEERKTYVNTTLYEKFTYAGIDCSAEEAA

What is called IC50 is the concentration needed to halve the response being measured. For the compound `COC1=CC(=O)C=C(/C=C2\CCCC3CCCCC23)C1=O` (configuration not stated), the results for the IC50 (on Angiopoietin-1 receptor [1]; in experiment [4]; in experiment [6]) were 14 µM, above 100 µM and above 100 µM, respectively. The NI entry in [2], in experiment [3] and in experiment [5] was “inactive” each time.
Take `COC1=CC(=O)C=CC1=O`: the NI result (in experiment [2]; in experiment [3]; at Angiopoietin-1 receptor [7]; in experiment [5]; in [8]) was “inactive” throughout. Also, the midpoint of inhibition in experiment [4], the IC50, lay at 29 µM.
Consider `CC(O)C(/N=C1\C(O)=CC(=O)C(O)=C1CC1CCCC2CCCCC21)C(=O)O` (configuration not stated), for which the IC50 against Angiopoietin-1 receptor [1] was 9 µM; in experiment [9] it was 0.5 µM; in [10] it was above 50 µM; in [6], above 100 µM. The NI entry in experiment [3] and in experiment [11] was “inactive” in each case.
Regarding `CC(O)C(/N=C1C=C(O)/C(=N\C(C(=O)O)C(C)O)C=C/1O)C(=O)O` (configuration not stated), the IC50 on Angiopoietin-1 receptor [1] worked out at 5 µM; in [9], 6 µM; in [12], 3 µM; in experiment [6] it was 44 µM. Moreover, the NI entry in [5] and in experiment [11] was “inactive” each time.
In the case of `CC1=CCC[C@H]2[C@](C)(CC3=C(O)C(O)=C/C(=N\[C@@H](CO)C(=O)O)C3=O)[C@H](C)CC[C@]12C`, the NI result (in experiment [2]; in experiment [3]; at Angiopoietin-1 receptor [7]; in experiment [8]; in experiment [11]) was “inactive” each time. Moreover, it took 20 µM to reach half-maximal inhibition in experiment [10] (IC50).
`COC1=CC(=O)C(N[C@@H](CO)C(=O)O)=CC1=O`: the IC50 in experiment [9] is above 50 µM; in [10], 8 µM; in [4] it was above 100 µM. Further, the NI entry (in [3]; at Angiopoietin-1 receptor [7]; in [8]) was “inactive” throughout.
Take `COC1=CC(=O)C=C(Cc2ccccc2)C1=O`: the IC50 on Angiopoietin-1 receptor [1] was determined as 18 µM. For the same compound, the NI entry in experiment [2], in experiment [3], in experiment [5], in experiment [8] and in experiment [11] was “inactive” throughout.
